Laboratory results from ChEMBL document CHEMBL1201862, “PubChem BioAssay data set” (2004).
Active and inactive are the calls of the source. For most assays here, no stated cut-off is given here; in the data, actives have a measured EC50 and inactives only a lower limit.

Legend:
[1] = NIH-3T3 fibroblast cytotoxicity, dose response, cytotoxicity control, cell-based, fluorescence, Alamar Blue, secondary assay (AID 2327); format: functional;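 further: NIH-3T3 mouse fibroblasts cultured with fluconazole at 8 µg/mL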
[2] = fluconazole-exposed Candida albicans growth modulators – fluorescence, retest, confirmation (AID 2467); format: functional, cell-based
[3] = target: T1, Zinc finger protein mex-5 (Caenorhabditis elegans, UniProt Q9XUB2); test: potency of MEX-5 RNA-binding blockers – biochemical, C. elegans, fluorescence polarization, dose response (AID 1960)
T1 sequence (Q9XUB2 whole entry): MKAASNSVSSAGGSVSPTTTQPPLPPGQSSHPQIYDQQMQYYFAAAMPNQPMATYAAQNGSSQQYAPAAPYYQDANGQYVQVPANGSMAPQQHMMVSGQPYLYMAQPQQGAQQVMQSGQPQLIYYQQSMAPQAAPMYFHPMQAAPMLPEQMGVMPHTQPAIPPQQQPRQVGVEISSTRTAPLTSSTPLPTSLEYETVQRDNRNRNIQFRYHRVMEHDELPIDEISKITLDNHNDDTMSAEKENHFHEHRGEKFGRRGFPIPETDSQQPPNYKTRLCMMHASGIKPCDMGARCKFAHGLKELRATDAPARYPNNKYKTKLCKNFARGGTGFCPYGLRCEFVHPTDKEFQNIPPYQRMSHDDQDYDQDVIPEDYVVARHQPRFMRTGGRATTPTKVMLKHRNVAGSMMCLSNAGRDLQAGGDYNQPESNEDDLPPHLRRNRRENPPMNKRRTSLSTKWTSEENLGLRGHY

[4] = target: T2, Corticotropin-releasing factor receptor 2/Corticotropin-releasing factor-binding protein (Homo sapiens, UniProt P24387+Q13324); test: activators of CRF receptor 2 with binding protein – uHTS hits, confirmation (AID 602473); format: functional; conditions: read-out: EC50_Mean
T2 sequence (Q13324 whole entry): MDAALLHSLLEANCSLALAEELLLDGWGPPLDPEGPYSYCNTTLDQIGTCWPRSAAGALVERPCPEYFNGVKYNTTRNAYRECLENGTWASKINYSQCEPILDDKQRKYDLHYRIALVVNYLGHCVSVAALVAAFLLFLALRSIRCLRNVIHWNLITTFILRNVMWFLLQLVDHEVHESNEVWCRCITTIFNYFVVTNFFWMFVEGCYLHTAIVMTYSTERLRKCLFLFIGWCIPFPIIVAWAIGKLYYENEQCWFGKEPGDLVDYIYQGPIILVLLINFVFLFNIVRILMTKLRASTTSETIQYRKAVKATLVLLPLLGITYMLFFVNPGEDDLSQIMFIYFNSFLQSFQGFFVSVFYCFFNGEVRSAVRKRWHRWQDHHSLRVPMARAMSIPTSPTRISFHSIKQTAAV
T2 sequence (P24387 whole entry): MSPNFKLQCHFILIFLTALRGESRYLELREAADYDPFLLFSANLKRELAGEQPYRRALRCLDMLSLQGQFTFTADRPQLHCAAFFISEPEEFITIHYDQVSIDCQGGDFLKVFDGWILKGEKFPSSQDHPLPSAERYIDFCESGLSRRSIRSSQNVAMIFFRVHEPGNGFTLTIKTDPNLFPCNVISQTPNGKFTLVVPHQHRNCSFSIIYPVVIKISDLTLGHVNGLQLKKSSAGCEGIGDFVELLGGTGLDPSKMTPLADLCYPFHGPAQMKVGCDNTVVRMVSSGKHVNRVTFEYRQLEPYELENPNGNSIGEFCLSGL

[5] = target: T3, RNA-binding protein pos-1 (Caenorhabditis elegans, UniProt G5EF15); test: disruptors of C. elegans POS-1 RNA interaction – biochemical, fluorescence polarization, dose response (AID 1964);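 further: purified POS-1 fused to maltose binding protein made in E. coli; potency of compounds blocking POS-1 binding to fluorescent RNA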
T3 sequence (G5EF15 whole entry): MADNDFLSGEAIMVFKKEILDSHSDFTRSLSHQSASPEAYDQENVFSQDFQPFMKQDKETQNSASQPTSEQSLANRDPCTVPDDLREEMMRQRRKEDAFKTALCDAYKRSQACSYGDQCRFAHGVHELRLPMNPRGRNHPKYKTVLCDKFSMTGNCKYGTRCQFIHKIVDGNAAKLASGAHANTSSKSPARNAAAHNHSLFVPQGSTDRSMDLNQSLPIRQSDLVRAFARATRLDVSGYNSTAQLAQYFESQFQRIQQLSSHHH

[6] = target: T4, Replicative DNA helicase DnaB (Mycobacterium tuberculosis, UniProt P9WMR3); test: DnaB intein splicing inhibitors, dose response, biochemical, cell-free fluorescence (AID 449749); format: functional
T4 sequence (P9WMR3 whole entry): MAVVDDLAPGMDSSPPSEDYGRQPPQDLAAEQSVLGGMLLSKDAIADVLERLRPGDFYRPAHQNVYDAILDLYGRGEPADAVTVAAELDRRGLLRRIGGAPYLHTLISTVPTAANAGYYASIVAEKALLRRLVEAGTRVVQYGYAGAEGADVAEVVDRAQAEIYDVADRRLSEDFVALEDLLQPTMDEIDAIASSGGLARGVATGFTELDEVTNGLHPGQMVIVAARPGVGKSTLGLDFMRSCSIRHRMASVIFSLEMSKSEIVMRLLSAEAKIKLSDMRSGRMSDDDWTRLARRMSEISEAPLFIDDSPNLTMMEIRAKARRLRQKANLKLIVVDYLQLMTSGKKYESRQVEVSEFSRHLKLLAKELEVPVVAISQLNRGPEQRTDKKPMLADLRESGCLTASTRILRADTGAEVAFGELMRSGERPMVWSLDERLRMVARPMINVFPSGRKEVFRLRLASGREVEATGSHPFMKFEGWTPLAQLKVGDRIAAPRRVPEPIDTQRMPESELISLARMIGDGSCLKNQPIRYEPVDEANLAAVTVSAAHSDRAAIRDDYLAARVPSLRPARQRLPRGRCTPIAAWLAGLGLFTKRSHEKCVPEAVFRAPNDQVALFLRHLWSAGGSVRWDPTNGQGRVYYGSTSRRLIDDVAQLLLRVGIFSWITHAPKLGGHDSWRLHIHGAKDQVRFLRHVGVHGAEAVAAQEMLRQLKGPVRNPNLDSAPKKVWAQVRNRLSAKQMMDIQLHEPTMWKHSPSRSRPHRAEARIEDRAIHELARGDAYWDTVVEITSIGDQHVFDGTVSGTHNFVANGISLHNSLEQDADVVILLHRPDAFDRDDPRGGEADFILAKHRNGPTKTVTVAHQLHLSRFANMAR

Protein RecA = target: T5, Protein RecA (Mycobacterium tuberculosis, UniProt P9WHJ3); test: Fluorescence Cell-Free Homogeneous Dose Retest to Identify Inhibitors of RecA-Intein Splicing Activity. [Related pubchem assays (depositor defined):AID2097, AID2223, AID489010, AID492950]; format: functional
T5 sequence (P9WHJ3 whole entry): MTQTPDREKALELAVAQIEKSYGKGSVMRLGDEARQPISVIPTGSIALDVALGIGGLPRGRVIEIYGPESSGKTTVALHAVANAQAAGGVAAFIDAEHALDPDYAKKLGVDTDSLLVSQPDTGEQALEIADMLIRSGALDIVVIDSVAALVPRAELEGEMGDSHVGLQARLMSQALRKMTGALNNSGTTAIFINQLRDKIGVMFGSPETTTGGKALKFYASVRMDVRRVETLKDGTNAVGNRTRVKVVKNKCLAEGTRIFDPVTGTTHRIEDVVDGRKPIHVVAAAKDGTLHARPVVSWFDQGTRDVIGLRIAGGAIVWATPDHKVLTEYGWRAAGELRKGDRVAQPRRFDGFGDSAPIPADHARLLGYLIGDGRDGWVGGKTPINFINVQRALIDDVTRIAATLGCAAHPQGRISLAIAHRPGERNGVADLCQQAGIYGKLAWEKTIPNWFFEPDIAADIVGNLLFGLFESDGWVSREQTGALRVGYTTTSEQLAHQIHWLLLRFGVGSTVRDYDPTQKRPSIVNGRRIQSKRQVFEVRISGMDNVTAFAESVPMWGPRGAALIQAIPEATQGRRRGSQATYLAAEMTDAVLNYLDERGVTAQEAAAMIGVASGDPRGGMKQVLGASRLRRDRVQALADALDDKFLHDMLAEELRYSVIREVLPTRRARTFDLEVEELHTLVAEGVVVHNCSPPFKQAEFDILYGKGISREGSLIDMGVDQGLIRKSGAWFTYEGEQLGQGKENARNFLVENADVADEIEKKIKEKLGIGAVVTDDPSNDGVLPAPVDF

[7] = reduction of Shn3 3'UTR-driven luciferase in osteoblasts – cell-based, Clone20 osteoblasts, firefly luciferase, cherry-picked, dose response (AID 624132); format: functional;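 further: firefly luciferase luminescence from reporter carrying the Shn3 3'UTR in osteoblasts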
[8] = target: T6, Heat shock factor protein 1 (Mus musculus, UniProt P38532); test: decrease of HSF1-responsive luciferase luminescence – cell-based, NIH3T3, dose retest, confirmation (AID 2382); format: functional;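 further: NIH3T3 fibroblasts with HSF1-driven luciferase reporter stressed by proteasome inhibitor MG132; luminescence from HSF1-driven luciferase expression after 8 hours of MG132 stress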
T6 sequence (P38532 whole entry): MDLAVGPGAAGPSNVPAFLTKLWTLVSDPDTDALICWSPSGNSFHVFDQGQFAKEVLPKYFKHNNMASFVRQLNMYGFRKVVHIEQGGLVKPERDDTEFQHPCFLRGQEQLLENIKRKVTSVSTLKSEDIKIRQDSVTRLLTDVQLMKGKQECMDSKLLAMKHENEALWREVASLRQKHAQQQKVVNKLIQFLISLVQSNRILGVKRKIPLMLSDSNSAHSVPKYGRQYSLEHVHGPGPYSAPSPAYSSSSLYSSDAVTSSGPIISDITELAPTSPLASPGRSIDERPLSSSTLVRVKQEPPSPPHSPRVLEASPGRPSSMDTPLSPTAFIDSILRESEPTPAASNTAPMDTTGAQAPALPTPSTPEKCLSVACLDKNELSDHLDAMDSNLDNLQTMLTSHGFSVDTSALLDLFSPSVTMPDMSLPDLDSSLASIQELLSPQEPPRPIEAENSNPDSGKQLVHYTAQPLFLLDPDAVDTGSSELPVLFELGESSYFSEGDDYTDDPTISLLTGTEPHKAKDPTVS

[9] = non-specific 3'UTR reporter inhibition in Clone20-Shn3RL – cell-based, Renilla luciferase, cherry-picked, counter-screen for Shn3 inhibitor project, dose response (AID 624133); format: functional

Structure (SMILES)	EC50 [3]	EC50 [5]	AC50 [6]	EC50 (Protein RecA)	further results
CC(C)c1nc(N2CCN(C(=O)c3ccco3)CC2)c2c3c(sc2n1)CCCC3					EC50 [1]: > 150 µM (inactive); EC50 [2]: > 38 µM (not active)
COc1cccc(C2C(C(=O)c3ccc(C)cc3)=C(O)C(=O)N2Cc2ccco2)c1 (stereo not given)					EC50 [1]: > 160 µM (inconclusive); EC50 [2]: 3.1 µM (active)
COc1ccccc1NC(=O)c1sc2nc(Cc3ccccc3)cc(C(F)(F)F)c2c1N	16.2 µM (active)	9.55 µM (inconclusive)			EC50 [4]: 6.15 µM (active)
Cc1c(-c2nn(C)c(=O)c3ccccc23)oc2ccc(F)cc2c1=O			3.86 µM (active)	2.51 µM (active)	
CN(CC(=O)Nc1ccc(N2CCOCC2)cc1)CC(=O)Nc1cccc(C#N)c1			199 µM (active)	> 380 µM (inactive)	
CC(C)(C)NC(=O)NC(=O)CN1CCCc2ccccc21					EC50 [1]: > 150 µM (inactive); EC50 [2]: > 38 µM (not active)
CCCCC1=CC2=C(c3ccco3)C(=O)C(C)(OC(=O)c3ccc(OC)cc3)C(=O)C2=CN1C1CCCC1 (stereo not given)	14.3 µM (active)	16 µM (active)			
CC(C)OC(=O)C(C#N)c1nc2ccccc2nc1N1CCCC1 (stereo not given)	> 300 µM (not active)	> 300 µM (not active)			
COc1ccc(C2C(C#N)=C(N)OC3=C2C(=O)CC(C)(C)C3)cc1OC (stereo not given)	> 300 µM (not active)	> 300 µM (not active)			
CC(=O)Nc1ccc(N/C=C/C(=O)c2ccc(C)o2)cc1	> 300 µM (not active)	> 300 µM (not active)			
Cc1ccccc1OCC(=O)Nc1ccc2c(c1)C(=O)c1ccccc1C2=O	> 300 µM (not active)	36.1 µM (active)			
COC(=O)CC1=NN(c2ccccc2)C(=O)C1			13.2 µM (active)	4.42 µM (active)	
O=C(c1ccc(Br)s1)N1CCN(c2ccccn2)CC1	> 300 µM (not active)	> 300 µM (not active)			
CCc1cc(C(=O)c2ccc(C)cc2)c(NC(=O)CCl)s1			3.98 µM (active)	1.07 µM (active)	
Cc1ccc(C2C(C#N)=C(N)Oc3[nH]nc(-c4cccnc4)c32)o1 (stereo not given)			25.6 µM (active)	6.46 µM (active)	
Cc1ccc([N+](=O)[O-])cc1S(=O)(=O)N(C(=O)c1ccncc1)c1ccc2oc3c(c2c1)CCCC3			42 µM (active)	10.8 µM (active)	
Cc1nn(Cc2ccccc2)c2c1C(c1ccccc1)C(C#N)=C(N)O2 (stereo not given)			8.53 µM (active)	3.64 µM (active)	
COc1ccc2c3c([nH]c2c1)C1CC2C(CC(O)C(OC)C2C(=O)O)CN1CC3 (stereo not given)	> 300 µM (not active)	> 300 µM (not active)			
CC(C)(c1ccccc1)c1ccc(OCC2CO2)cc1 (stereo not given)			10 µM (active)	11.9 µM (active)	
Cc1cc2oc(=O)c(CC(=O)NCCCO)c(C)c2c2occ(C(C)(C)C)c12	> 300 µM (not active)	> 300 µM (not active)			
COC(=O)Cc1n[nH]c2c1C(c1ccc(O)c(OC)c1)C(C#N)=C(N)O2 (stereo not given)			7.51 µM (inconclusive)	2.88 µM (active)	
CN1CCN(C(=O)c2cnn(-c3ccccc3)c2NC(=O)c2ccccc2)CC1					EC50 [1]: > 150 µM (inactive); EC50 [2]: > 38 µM (not active)
Cc1ccc(N/N=C2\COC(C)(C)CC2=O)cc1					EC50 [1]: > 160 µM (inactive); EC50 [2]: > 38 µM (not active)
COCCN1Cc2cccc(C(=O)Nc3ccc4c(c3)OCCO4)c2C1=O					AC50 [7]: 27.1 µM (active); EC50 [8]: 11.6 µM (active); AC50 [9]: 19.1 µM (active)
